{"source": "patent US20260199371A1", "about": "“COORDINATION COMPOUND, COMPOSITIONS, AND USES THEREOF FOR TREATING CANCERS” (HUEIYUAN BIOTECH LLC, priority 2023, published 2026)", "key": {"T24 cells": {"tested_on": "T24 cells", "conditions": "0-1600 μg/ml, 24 hours", "method": "Human bladder carcinoma T24 cells (commercially available from ATCC under the number HTB-4) were cultured in RPMI 1640 medium supplemented with 10% FBS."}, "SCC-25 cells": {"tested_on": "SCC-25 cells", "conditions": "0-1400 μg/ml, 24 hours", "method": "Human oral squamous cell carcinoma (OSCC)SCC-25 cells (commercially available from ATCC under the number CRL-1628) were cultured in DMEM/F12 supplemented with 10% FBS."}, "A431 cells": {"tested_on": "A431 cells", "conditions": "1-1000 μg/ml, 48 hours", "method": "Human epidermoid carcinoma A431 cells (commercially available from ATCC under the number CRL-1555) were cultured in DMEM supplemented with 10% FBS."}, "143B cells [1]": {"tested_on": "143B cells", "experiment": "MTT assay, viability of 143B cells", "assay_type": "cell-based, human", "conditions": "24 hours", "method": "Human osteosarcoma 143B cells (commercially available from ATCC under the number CRL-8303) were cultured in DMEM supplemented with 10% FBS and 1% sodium pyruvate."}, "LNCaP cells": {"tested_on": "LNCaP cells", "conditions": "24 hours", "method": "Human prostate carcinoma LNCaP cells (commercially available from ATCC under the number CRL-1740) were cultured in RPMI-1640 medium (Gibco™, Thermo Fisher Scientific, Waltham, MA, USA) supplemented with 10% FBS."}, "LoVo-parental cells [2]": {"tested_on": "LoVo-parental cells", "conditions": "single agent: compound (II) 500 μg/ml or oxaliplatin 50 μg/ml, 48 hours"}, "LoVo-OXAR cells [3]": {"tested_on": "LoVo-OXAR cells", "conditions": "2000 μg/ml, 24 hours, versus control", "method": "(§1) To evaluate whether the compound (II) induces apoptosis of cancer cells, terminal deoxynucleotidyl transferase dUTP nick-end labeling (TUNEL) assay was employed to detect apoptosis. In brief, LoVo-parental cells and LoVo-OXAR cells were treated with 500 μg/ml and 2000 μg/ml of the compound (II), respectively, for 24 hours before they were subject to TUNEL assay (In Situ Cell Death Detection Kit; Roche Applied Science, Indianapolis, IN, USA) and nuclear counterstain with 0.1 mg/ml 4′,6-diamidino-2-phenylindole (DAPI, Sigma-Aldrich, St. Louis, MO, USA). Lovo-parental or LoVo-OXAR cells treated with 0 μg/ml of the compound (II) were set as control groups. TUNEL-positive cells were examined by Olympus CKX53 microscope (Olympus, Shinjuku-ku, Tokyo, Japan)."}, "LoVo-parental cells [4]": {"tested_on": "LoVo-parental cells", "conditions": "500 μg/ml, 24 hours, versus control", "method": "as §1"}, "143B cells [5]": {"tested_on": "143B cells", "conditions": "Transwell migration", "method": "(§2) Transwell migration assay, as described in Example 5.1, was performed on 143B cells to investigate how the compound (II) would affect the migration ability of bone cancer cells."}, "[6]": {"tested_on": "EMT markers in 143B cells", "conditions": "western blot", "method": "as §2"}, "LoVo-OXAR cells [7]": {"tested_on": "LoVo-OXAR cells", "conditions": "high dose 100 mg/kg/day orally, compared to low dose 10 mg/kg/day", "text": "(§3) Six-week-old male NU/NU mice were purchased from Bio LASCO Taiwan Co., Ltd (Taipei, Taiwan) and randomly assigned into six groups (Groups 1 to 6), each containing three mice. […] All mice were sacrificed on day 30, and the mouse lung, kidney, spleen, and heart were examined for metastatic cancer cells."}, "LoVo-parental cells [8]": {"tested_on": "LoVo-parental cells", "conditions": "high dose 100 mg/kg/day orally, compared to low dose 10 mg/kg/day", "text": "as §3"}, "[9]": {"tested_on": "LoVo-OXAR cells tumor xenograft", "method": "(§4) Six-week-old male NU/NU mice were purchased from Bio LASCO Taiwan Co., Ltd (Taipei, Taiwan) and randomly assigned into four groups (Groups 1 to 4), each containing three mice. […] Tumor volume and mice body weight were measured every three days. […] All mice were sacrificed on day 21, and the tumors were excised and weighed.\n(§5) Moreover, the LoVo-parental and LoVo-OXAR tumor tissues were collected and subject to TUNEL assay."}, "[10]": {"tested_on": "LoVo-parental cells tumor xenograft", "method": "as §4, §5"}, "LoVo-OXAR cells [11]": {"tested_on": "LoVo-OXAR cells", "conditions": "single agent: compound (II) 2000 μg/ml or oxaliplatin 50 μg/ml, 48 hours"}, "LoVo-OXAR cells [12]": {"tested_on": "LoVo-OXAR cells", "conditions": "single agent: compound (II) 2000 μg/ml or oxaliplatin 50 μg/ml, 72 hours"}, "LoVo-parental cells [13]": {"tested_on": "LoVo-parental cells", "conditions": "single agent: compound (II) 500 μg/ml or oxaliplatin 50 μg/ml, 72 hours"}, "[14]": {"tested_on": "PANC-1 cells tumor xenograft", "experiment": "Subcutaneous PANC-1 tumor xenograft in C.B17/SCID mice", "conditions": "for Change in body weight / TGI (%): oral; for TGI (%): 14 days, read 14 days after the treatment period"}, "HA22T-HDACiR cells": {"tested_on": "HA22T-HDACiR cells", "conditions": "0-1250 μg/ml, 24 hours"}, "LoVo-parental cells [15]": {"tested_on": "LoVo-parental cells", "conditions": "24 hours"}, "[16]": {"conditions": "Group 5: 150 mg/kg, twice a day"}}, "data": [{"smiles": "CC(=O)[O-].CC(=O)[O-].CC(=O)[O-].CC(=O)[O-].CC(=O)[O-].CC(=O)[O-].O.O.O.O.O=[N+]([O-])[O-].[Cr+3].[Fe+3].[Fe+3].[OH-].[OH-]", "note": "[compound (II)]", "values": [{"measurement": "viability of T24 cells", "setting": "T24 cells", "result": "reduced the viability of the bladder carcinoma cells in a dose-dependent manner"}, {"measurement": "viability of SCC-25 cells", "setting": "SCC-25 cells", "result": "reduced the viability of the OSCC cells in a dose-dependent manner"}, {"measurement": "viability of A431 cells", "setting": "A431 cells", "result": "reduced the viability of the A431 cells in a dose-dependent manner"}, {"measurement": "viability of 143B cells", "setting": "143B cells [1]; 0-4000 μg/ml", "result": "reduced the viability of the osteosarcoma cells in a dose-dependent manner"}, {"measurement": "IC50 against 143B cells", "setting": "143B cells [1]; MTT", "result": "approximately 500 μg/ml"}, {"measurement": "viability of LNCaP cells", "setting": "LNCaP cells; 0-1600 μg/ml", "result": "reduced the viability of the prostate cancer cells in a dose-dependent manner"}, {"measurement": "IC50 against LNCaP cells", "setting": "LNCaP cells; MTT", "result": "approximately 1033 μg/ml"}, {"measurement": "migration rate of LoVo-parental cells", "setting": "LoVo-parental cells [2]", "result": "significantly decreased"}, {"measurement": "apoptotic cell death (TUNEL) in LoVo-OXAR cells", "setting": "LoVo-OXAR cells [3]", "result": "significant increase in apoptotic cell death"}, {"measurement": "apoptotic cell death (TUNEL) in LoVo-parental cells", "setting": "LoVo-parental cells [4]", "result": "significant increase in apoptotic cell death"}, {"measurement": "crawling (migration) of 143B cells", "setting": "143B cells [5]", "result": "inhibited by the compound (II) in a dose-dependent manner"}, {"measurement": "E-cadherin expression", "setting": "[6]", "result": "increasing"}, {"measurement": "vimentin expression", "setting": "[6]", "result": "significantly decreased"}, {"measurement": "metastasis to the lung, kidney, spleen, and heart", "setting": "LoVo-OXAR cells [7]", "result": "effectively inhibited the metastasis"}, {"measurement": "metastasis to the lung, kidney, spleen, and heart", "setting": "LoVo-parental cells [8]", "result": "effectively inhibited the metastasis"}, {"measurement": "apoptosis in tumors (TUNEL)", "setting": "[9]; LoVo-OXAR tumors", "result": "induced significantly higher apoptosis"}, {"measurement": "health of mice after treatment", "setting": "[9]; LoVo-OXAR xenograft, 100 mg/kg orally every three days", "result": "healthy"}, {"measurement": "tumor growth", "setting": "[9]; LoVo-OXAR xenograft, 100 mg/kg orally every three days, about three weeks", "result": "significantly reduced the tumor growth"}, {"measurement": "body weight of the mice", "setting": "[9]; LoVo-OXAR xenograft, day 1 to day 21, loss attributed to the tumor", "result": "body weight loss"}, {"measurement": "apoptosis in tumors (TUNEL)", "setting": "[10]; LoVo-parental tumors", "result": "induced significantly higher apoptosis"}, {"measurement": "health of mice after treatment", "setting": "[10]; LoVo-parental xenograft, 100 mg/kg orally every three days", "result": "healthy"}, {"measurement": "tumor growth", "setting": "[10]; LoVo-parental xenograft, 100 mg/kg orally every three days, about three weeks", "result": "significantly reduced the tumor growth"}, {"measurement": "body weight of the mice", "setting": "[10]; LoVo-parental xenograft, day 1 to day 21", "result": "remained constant"}, {"measurement": "migration rate of LoVo-OXAR cells", "setting": "LoVo-OXAR cells [11]", "result": "significantly decreased"}, {"measurement": "invasion rate of LoVo-OXAR cells", "setting": "LoVo-OXAR cells [12]", "result": "significantly decreased"}, {"measurement": "invasion rate of LoVo-parental cells", "setting": "LoVo-parental cells [13]", "result": "significantly decreased"}, {"measurement": "Change in body weight", "setting": "[14]; Group 3: 100 mg/kg, once a day", "result": "107 ± 5", "unit": "%"}, {"measurement": "TGI (%)", "setting": "[14]; Group 3: 100 mg/kg, once a day", "result": "51 ± 8", "unit": "%"}, {"measurement": "Change in body weight", "setting": "[14]; Group 4: 150 mg/kg, once a day", "result": "102 ± 3", "unit": "%"}, {"measurement": "TGI (%)", "setting": "[14]; Group 4: 150 mg/kg, once a day", "result": "51 ± 6", "unit": "%"}, {"measurement": "Change in body weight", "setting": "[14]; [16]", "result": "103 ± 4", "unit": "%"}, {"measurement": "TGI (%)", "setting": "[14]; [16]", "result": "88 ± 6", "unit": "%"}, {"measurement": "toxicity to mice at a therapeutically effective dose", "setting": "[14]; Groups 3-5", "result": "not toxic to mice"}, {"measurement": "body weight of the mice", "setting": "[14]; Groups 3-5, FIG. 20B", "result": "remained constant"}, {"measurement": "viability of HA22T-HDACiR cells", "setting": "HA22T-HDACiR cells", "result": "reduced the viability of both liver cancer cells in a dose-dependent manner"}, {"measurement": "viability of LoVo-parental cells", "setting": "LoVo-parental cells [15]; 0-4000 μg/ml", "result": "reduced the viability of both colorectal cancer cells in a dose-dependent manner"}, {"measurement": "IC50 against LoVo-parental cells", "setting": "LoVo-parental cells [15]; MTT", "result": "about 500 μg/ml"}]}]}
